For series [1], the system named is BDZ-bs of the GABAA receptor. Put plainly: [3H]-FNZ radioligand binding assay. As to conditions: [3H]-FNZ displacement, compound at 300 μM, rat cerebral cortex membranes.
Another series deals with T1, 5-HT1A receptor (Rattus norvegicus, UniProt P19327).
T1 sequence (P19327 1-422): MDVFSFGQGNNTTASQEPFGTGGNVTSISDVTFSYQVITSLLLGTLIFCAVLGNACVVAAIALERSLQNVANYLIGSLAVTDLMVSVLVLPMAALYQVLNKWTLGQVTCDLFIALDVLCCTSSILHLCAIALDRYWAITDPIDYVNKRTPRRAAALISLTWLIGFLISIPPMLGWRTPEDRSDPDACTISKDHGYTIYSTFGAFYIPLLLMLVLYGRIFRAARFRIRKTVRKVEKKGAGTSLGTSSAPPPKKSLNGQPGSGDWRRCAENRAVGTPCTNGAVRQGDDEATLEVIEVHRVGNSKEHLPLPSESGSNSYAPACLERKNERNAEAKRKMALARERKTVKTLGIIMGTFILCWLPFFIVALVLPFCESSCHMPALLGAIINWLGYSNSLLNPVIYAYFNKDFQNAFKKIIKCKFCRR
Kind of series: [3H]-8-OH-DPAT radioligand binding assay. The note with it: for inhibition at 300 µM: read-out: 5-HT1A Binding Inhibition (%) [300 μM].

Series [2] addresses T2, μ-opioid receptor (Rattus norvegicus, UniProt P33535). Kind of series: [3H]-DAMGO radioligand binding assay. As to conditions: for inhibition at 300 µM: read-out: μ-opioid Binding inhibition (%) [300 μM].
Another series in a line: Cell viability assay. In kind it is cell-based, human. The note with it: human, SH-SY5Y cells.
A short description of series [3]: PAMPA-BBB permeability assay. Format: in vitro ADME. The note with it: for Papp at 16 h, 50 µM: PAMPA, pH 7.4; for BBB penetration estimation Prediction: PAMPA-BBB binning by -logPe.
In series [4] the test system is mice. Kind of series: Acetic acid induced writhing test. Format: in vivo.
The subject of series [5] is mice. Put plainly: Hot plate test. Format: in vivo. As to conditions: 30 mg/kg i.p., plate 52.5 °C.
In series [6] the test system is mice. Put plainly: Spontaneous locomotor activity. Format: in vivo. The note with it: 5 min counts.
The test system of series [7] is mice. Put plainly: Rotarod. The note with it: 30 mg/kg i.p., cut-off 120 s. In kind it is in vivo.
The target of series [8] is benzodiazepine binding site (BDZ-bs) of the GABAA receptor. As to conditions: read-out: Ki for the BDZ-bs of the GABAA receptor; cited from earlier work.
In a further series the test system is rats. As to conditions: cited from earlier work.
Series [9] relates to mice. As to conditions: cited from earlier work.
In series [10] the test system is mice. The note with it: cited from earlier work. This is another data set of the same source.
The test system of another series is SH-SY5Y cells. Put plainly: Cell viability assay. In kind it is cell-based, human. The note with it: 48 h, SH-SY5Y.
The test system of series [11] is mice. Kind of series: Tail suspension test. In kind it is in vivo. As to conditions: 30 min before.
Series [12] has as its target T2, μ-opioid receptor. The note with it: read-out: μ-opioid Ki; [3H]-DAMGO, rat forebrain membranes; cited from earlier work.
The test system of another series is hMAO B. The note with it: read-out: IC50 hMAO B; cited from earlier work.
The next series concerns hMAO A. As to conditions: cited from earlier work.

Entries after “also recorded” stand apart in the source; their conditions may differ. Read-outs that look alike come from different tables or passages of the source.

T2 sequence (P33535 whole entry): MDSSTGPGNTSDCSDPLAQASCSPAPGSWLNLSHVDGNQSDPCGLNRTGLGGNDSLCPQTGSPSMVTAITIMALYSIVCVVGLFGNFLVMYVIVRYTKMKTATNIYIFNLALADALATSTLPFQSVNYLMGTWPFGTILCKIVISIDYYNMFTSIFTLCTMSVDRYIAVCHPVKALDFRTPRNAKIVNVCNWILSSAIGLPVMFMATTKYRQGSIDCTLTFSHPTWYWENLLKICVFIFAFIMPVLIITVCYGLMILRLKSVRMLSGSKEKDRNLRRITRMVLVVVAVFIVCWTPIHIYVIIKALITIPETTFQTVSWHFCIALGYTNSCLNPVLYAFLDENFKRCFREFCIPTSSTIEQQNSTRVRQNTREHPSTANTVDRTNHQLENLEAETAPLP

For `Cc1cc(C(=O)/C=C/c2ccccc2)c(O)c([N+](=O)[O-])c1` [Compound 12, (2E)-1-(5-methyl-3-nitro-2-hydroxyphenyl)-3-phenyl-2-propen-1-one], in series [1], the “BDZ-bs Binding inhibition (%) [300 μM]” value is given as “+ (inhibition 20–40% (+))”. Besides, the inhibition at 300 µM is less than 20% on 5-HT1A receptor and more than 90% at μ-opioid receptor [2]. Further, the Ki on μ-opioid receptor [2] (μ-opioid Ki, [3H]-DAMGO, rat forebrain membranes, Ki ± SEM, 2 determinations) amounted to 10.8 ± 3.6 µM. This compound displayed a viability at 48 h, 20 µM in the series “Cell viability assay” of 74.8%. The compound further showed a Papp at 16 h, 50 µM in series [3] of 33.9 ×10⁻⁶ cm/s. The “BBB penetration estimation Prediction” value in series [3] is “CNS+ (CNS+, -logPe < 5.6, high permeability)”. Moreover, the “inhibition of constrictions compared to VEH” value is 59.7% in the series with mice [4] (3 mg/kg i.p.), 62.6% in the series with mice [4] (10 mg/kg i.p.) and 96.1% in the series on mice [4] (30 mg/kg i.p.). Also, the “number of writhes vs VEH” value in the series on mice [4] (10 mg/kg i.p., acetic acid 0.75%) was “significantly reduced”. In the series on mice [5], the “reaction (latency) time against thermal stimulus vs VEH” value is recorded as “significant increases; also recorded: significantly increased”. In addition, in the series with mice [6] (10 and 30 mg/kg i.p.), the “spontaneous locomotor activity vs VEH” value is recorded as “None of the mice treated with chalcone 12 showed any failure in their locomotion”. Also, the “balance on the Rotarod” value in the series with mice [7] is “did not produce neurotoxicity or motor impairment”.
With `O=C(/C=C/c1ccc(O)cc1)c1ccc(O)cc1O` [isoliquiritigenin, 2′,4′,4-trihydroxychalcone], the Ki in [8] was 0.45 µM. Moreover, in the series with rats, the “effect in the plus-maze test” value is on record as “anxiolytic-like effect”.
As for `O=C(/C=C/c1cccc(Br)c1)c1ccc(O)cc1O` [3-bromo-2′,4′-dihydroxychalcone], in the series with mice [9], the “head-twitches in the 5-HT induced head-twitch test” value is given as “significantly increased head-twitches”. Also, the “lethality in the yohimbine-induced mortality test” value in the series with mice [10] is “enhanced the mouse lethality”.
With `O=C(/C=C/c1ccccc1)c1ccccc1` [Compound 1, Chalcone], in series [1], the “BDZ-bs Binding inhibition (%) [300 μM]” value is “++++ (inhibition >90% (++++))”. The Ki on 5-HT1A receptor is 20.8 ± 1.5 µM; at μ-opioid receptor [12], 28.2 ± 9.9 µM. Further, the inhibition at 300 µM at 5-HT1A receptor and at μ-opioid receptor [2] was 60 to 90% each time. Further, in “Cell viability assay”, the viability at 48 h, 20 µM came out at 95.9%. Besides, the “concentration up to which cell viability was not affected” value with SH-SY5Y cells is 75 µM. The compound also had a Papp at 16 h, 50 µM in series [3] of 26.3 ×10⁻⁶ cm/s. Besides, in series [3], the “BBB penetration estimation Prediction” value was “CNS+ (CNS+, -logPe < 5.6, high permeability)”. Further, the “immobility time vs VEH” value in the series on mice [11] (10 mg/kg i.p.) and with mice [11] (30 mg/kg i.p.) was “significantly reduced” each time. Moreover, in the series on mice [6] (30 mg/kg i.p.), the “spontaneous locomotor activity vs VEH” value is “significant increase”. For the same compound, the IC50 in the series on hMAO B was 1.41 ± 0.07 µM. The “effect on hMAO A” value with hMAO A was “no effect”.

The record behind these values is paper PMC6430037 (Heliyon, 2019).
